Data as given in publication PMC9939733 (The Journal of Biological Chemistry, 2023).
Substitutions are numbered along the chain they refer to.

Experiments:
Assay type in all cases: biochemical
[1] = target: T1, R132H IDH1 (Homo sapiens, UniProt O75874, R132H); test: Absorbance assay (NADPH consumption), substrate turnover in the absence of 2OG; design: made in house; host or cells: Escherichia coli BL21(DE3) pLyS
Experimental: (§1) Compounds were dispensed using a CyBio SDW-CW CyBi-Well Simultaneous Pipettor and assay started using a ThermoFisher Multidrop Combi reagent dispenser.
(§2) Reactions were performed as technical quadruplicates.

[2] = target: T2, WT IDH2 (Homo sapiens, UniProt P48735); test: Absorbance assay, WT activity in the presence of equimolar DL-isocitrate (inhibition); settings: […] isocitrate and […] test compound, 75 μM NADP+, 2.0 nM WT IDH2
T2 construct: made in house; host or cells: Sf21 insect cells (cell pellets prepared at Evotec)
T2 sequence (P48735 40-452): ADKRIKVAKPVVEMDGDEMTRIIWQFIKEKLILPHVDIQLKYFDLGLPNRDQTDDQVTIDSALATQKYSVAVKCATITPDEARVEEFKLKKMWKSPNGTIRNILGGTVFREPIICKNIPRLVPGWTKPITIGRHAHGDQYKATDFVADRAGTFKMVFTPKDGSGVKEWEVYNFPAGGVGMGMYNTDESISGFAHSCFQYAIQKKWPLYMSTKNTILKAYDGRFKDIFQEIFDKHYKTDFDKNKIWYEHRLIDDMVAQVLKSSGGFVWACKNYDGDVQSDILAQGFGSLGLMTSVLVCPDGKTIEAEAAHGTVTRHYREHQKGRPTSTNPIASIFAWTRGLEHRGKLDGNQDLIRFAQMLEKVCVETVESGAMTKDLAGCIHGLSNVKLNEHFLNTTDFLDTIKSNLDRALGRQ
Experimental: as §1, §2

[3] = target: T3, WT IDH1 (Homo sapiens, UniProt O75874); test: as above
T3 construct: made in house; host or cells: Escherichia coli BL21(DE3) pLyS
Experimental: as §1, §2

[4] = target: T4, R172K IDH2 (Homo sapiens, UniProt P48735, R172K); test: Absorbance assay, variant activity in the presence of equimolar 2OG (inhibition screen)
T4 construct: made in house; host or cells: Sf21 insect cells (cell pellets prepared at Evotec)
T4 sequence (P48735 40-452 R172K): T2 sequence (P48735 40-452) with R133K
Experimental: as §1, §2

[5] = target: T1, R132H IDH1; test: as above; design: made in house; host or cells: Escherichia coli BL21(DE3) pLyS
Experimental: as §1, §2

[6] = target: T4, R172K IDH2; test: Absorbance assay (NADPH consumption), substrate turnover in the absence of 2OG
Experimental: as §1, §2

[7] = target: T5, R140Q IDH2 (Homo sapiens, UniProt P48735, R140Q); test: Absorbance assay, variant activity in the presence of equimolar 2OG (inhibition screen)
T5 construct: made in house; host or cells: Sf21 insect cells (cell pellets prepared at Evotec)
T5 sequence (P48735 40-452 R140Q): T2 sequence (P48735 40-452) with R101Q
Experimental: as §1, §2

[8] = target: T5, R140Q IDH2; test: Absorbance assay (NADPH consumption), substrate turnover in the absence of 2OG
Experimental: as §1, §2

[9] = target: T2, WT IDH2; test: Absorbance assay, substrate activity in the absence of DL-isocitrate; settings: no DL-isocitrate; […] test compound, 75 μM NADP+, 2.0 nM WT IDH2; compared to DL-isocitrate
Experimental: as §1, §2

[10] = target: T3, WT IDH1; test: as above; settings: no DL-isocitrate; […] test compound, 75 μM NADP+, 2.0 nM WT IDH1; compared to DL-isocitrate
Experimental: as §1, §2

[11] = no 2OG, […] test compound, 0.03 μM R132H IDH1, 50 μM NADPH, 2OG = 100
[12] = […] isocitrate and […] test compound, 75 μM NADP+, 2.0 nM WT IDH1
[13] = 1.0 mM 2OG and 1.0 mM test compound, 0.03 μM R172K IDH2, 50 μM NADPH
[14] = […] 2OG and […] test compound, 0.03 μM R132H IDH1, 50 μM NADPH
[15] = no 2OG, 1.0 mM test compound, 0.03 μM R172K IDH2, 50 μM NADPH, 2OG = 100
[16] = 6.0 mM 2OG and 6.0 mM test compound, 0.03 μM R140Q IDH2, 50 μM NADPH
[17] = no 2OG, 6.0 mM test compound, 0.03 μM R140Q IDH2, 50 μM NADPH, 2OG = 100

T1 sequence (O75874 whole entry R132H): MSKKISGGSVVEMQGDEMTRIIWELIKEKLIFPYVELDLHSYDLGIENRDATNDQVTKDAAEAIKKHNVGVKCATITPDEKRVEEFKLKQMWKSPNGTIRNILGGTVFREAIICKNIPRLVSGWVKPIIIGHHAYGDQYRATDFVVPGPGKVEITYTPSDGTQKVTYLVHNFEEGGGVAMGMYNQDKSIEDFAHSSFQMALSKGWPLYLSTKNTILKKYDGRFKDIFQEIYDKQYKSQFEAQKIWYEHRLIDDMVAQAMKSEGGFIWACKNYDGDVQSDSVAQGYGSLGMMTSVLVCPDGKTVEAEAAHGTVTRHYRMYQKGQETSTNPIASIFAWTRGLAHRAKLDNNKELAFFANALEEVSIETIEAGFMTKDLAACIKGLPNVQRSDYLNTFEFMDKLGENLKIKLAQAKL
T3 sequence (O75874 whole entry): as the sequence (O75874 whole entry R132H) above, with H132R counted along it

Compound | activity [%] (%-substrate conversion after 20 min incubation) [1, 11] | activity [%] (%-substrate conversion after 20 min incubation) [2] | activity [%] (%-substrate conversion after 20 min incubation) [3, 12] | activity [%] (%-substrate conversion after 20 min incubation) [4, 13] | activity [%] (%-substrate conversion after 20 min incubation) [5, 14] | activity [%] (%-substrate conversion after 20 min incubation) [6, 15] | activity [%] (%-substrate conversion after 20 min incubation) [1] | activity [%] (%-substrate conversion after 20 min incubation) [3] | activity [%] (%-substrate conversion after 20 min incubation) [7] | activity [%] (%-substrate conversion after 20 min incubation) [4] | activity [%] (%-substrate conversion after 20 min incubation) [5] | activity [%] (%-substrate conversion after 20 min incubation) [8] | activity [%] (%-substrate conversion after 20 min incubation) [6] | activity [%] (%-substrate conversion after 20 min incubation) [7, 16] | activity [%] (%-substrate conversion after 20 min incubation) [8, 17] | activity [%] (%-substrate conversion after 20 min incubation) [9] | activity [%] (%-substrate conversion after 20 min incubation) [10]
O=C(O)C(=O)Cc1c[nH]c2ccccc12 [indole-3-pyruvic acid] | < 10 | 89 ± 1 | 88 ± 2 | 87 ± 10 | 81 ± 6 | < 10 |  |  |  |  |  |  |  |  |  |  | 
O=C(O)/C=C(/CC(=O)O)C(=O)O [cis-aconitic acid] |  |  |  |  |  |  | < 10 | 101 ± 2 | 119 ± 12 | 99 ± 7 | 100 ± 2 | < 10 | < 10 |  |  |  | 
O=C[C@H](O)[C@@H](O)[C@H](O)[C@H](O)C(=O)O [D-glucuronic acid] | < 10 |  | 106 ± 2 | 101 ± 2 | 104 ± 4 | < 10 |  |  |  |  |  |  |  | 112 ± 7 | < 10 |  | 
O=C(O)CC(C(=O)O)C(O)C(=O)O (racemic) [DL-isocitric acid] |  |  |  |  |  |  | < 10 |  | 64 ± 3 | 71 ± 5 | 78 ± 5 | < 10 | < 10 |  |  |  | 
O=C(O)CCCC(=O)C(=O)O [2-oxoadipic acid] | < 10 |  | 108 ± 8 | 96 ± 18 | 115 ± 8 | < 10 |  |  |  |  |  |  |  | 94 ± 8 | < 10 |  | 
CCC(CC(=O)C(=O)O)C(=O)O (racemic) [compound 14] |  | 98±3 | 94±1 | 112 ± 13 | 103 ± 2 |  |  |  |  |  |  |  |  | 117 ± 9 |  | < 10 | < 10
CCCCC(CC(=O)C(=O)O)C(=O)O (racemic) [compound 16] |  | 100±2 | 102±3 | 100 ± 5 | 113 ± 4 |  |  |  |  |  |  |  |  | 131 ± 9 |  | < 10 | < 10
